{"source": "patent US20180163178A1", "about": "“AUF1 ENCODING COMPOSITIONS FOR MUSCLE CELL UPTAKE, SATELLITE CELL POPULATIONS, AND SATELLITE CELL MEDIATED MUSCLE GENERATION” (priority 2015, published 2018)", "key": {"MMP9": {"molecular_target": "MMP9 (Mus musculus, UniProt P41245)", "sequence (P41245 108-730)": "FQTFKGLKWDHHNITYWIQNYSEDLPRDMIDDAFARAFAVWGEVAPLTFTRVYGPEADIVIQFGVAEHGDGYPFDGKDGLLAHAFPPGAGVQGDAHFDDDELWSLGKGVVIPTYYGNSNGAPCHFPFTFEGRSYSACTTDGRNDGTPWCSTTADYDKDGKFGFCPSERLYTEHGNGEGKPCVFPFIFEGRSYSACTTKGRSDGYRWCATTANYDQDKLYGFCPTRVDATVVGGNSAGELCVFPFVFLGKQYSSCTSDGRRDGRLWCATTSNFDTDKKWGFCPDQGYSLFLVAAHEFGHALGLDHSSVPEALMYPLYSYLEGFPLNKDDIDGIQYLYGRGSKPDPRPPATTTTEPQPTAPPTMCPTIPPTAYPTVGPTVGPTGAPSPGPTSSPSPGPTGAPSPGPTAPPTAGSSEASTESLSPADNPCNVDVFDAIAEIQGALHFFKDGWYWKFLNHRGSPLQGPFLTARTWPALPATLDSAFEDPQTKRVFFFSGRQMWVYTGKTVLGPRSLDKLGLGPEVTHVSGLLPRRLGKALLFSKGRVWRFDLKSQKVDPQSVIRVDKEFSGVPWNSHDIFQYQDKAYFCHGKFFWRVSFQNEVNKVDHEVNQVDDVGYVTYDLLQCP", "settings": "auf1 KO mice", "protocol": "(§1) Male and female mice 4-6 months of age were injected by 20 uL 1.2% BaCl2 in saline directly to the left TA muscle. Right TA muscle was left uninjured. Mice were monitored and sacrificed by protocol for 1-30 days post-injection. 2 mice per genotype per time point were studied.\nData were analyzed with an unpaired t-test.\n(§2) KO male and female mice 4 months of age were given an IP injection with 25 mg/kg SB-3CT (Sigma-Aldrich) every 24 h, starting 24 h prior to BaCl2 injury with MMPSense injection. Three mice per treatment were analyzed, then means and standard deviations calculated. Data were analyzed with an unpaired t-test."}, "[1]": {"test_system": "PAX7+ satellite cell population", "protocol": "as §1\nMale and female mice 4-6 months of age had their TA removed and preserved in OCT. Skeletal muscle samples were prepared as previously described (Bernet et al., “p38 MAPK Signaling Underlies a Cell-autonomous Loss of Stem Cell Self-renewal in Skeletal Muscle of Aged Mice,” Nature Medicine 20:265-271 (2014), which is hereby incorporated by reference in its entirety). Samples were post-fixed in 4% paraformaldehyde and blocked in 3% BSA in TBS-T. Primary antibodies were incubated at 4° C. overnight. Alexa Fluor donkey 488, 555, and 647 secondary antibodies were used at 1:500 and incubated for 1 hour at room temperature. Slides were sealed with Vectashield with DAPI. The following antibody dilutions were used: rat antibody to Laminin (Sigma, L0663, 1:250), mouse antibody to PAX7 (Santa Cruz Biotechnology, SC-81648, 1:500), goat antibody to hnRNPD (Santa Cruz Biotechnology, SC-22368, 1:250).\nImages were acquired using a Zeiss LSM 700 confocal microscope, primarily with the 20× lens. Images were processed and scored using ImageJ64. If needed, color balance was adjusted linearly for the entire image and all images in experimental set. All images were quantified based on field of view. At least 5 images per experimental animal and at least 2 animals per genotype were used for all experiments.\nas §2"}}, "data": [{"smiles": "O=S(=O)(CC1CS1)c1ccc(Oc2ccccc2)cc1", "note": "(centres unmarked) [SB-3CT]", "values": [{"measurement": "reduction in MMP9 activity (bioluminescence analysis, FIG. 11B)", "setting": "MMP9; SB-3CT IP daily from 24 h prior to BaCl2 TA injury, injured TA 24 h post-injury, vs untreated KO", "result": "> 5", "unit": "fold"}, {"measurement": "MMP9 activity at the site of IP injection (FIG. 11A)", "setting": "MMP9; SB-3CT IP daily, IVIS imaging", "result": "near complete extinction of MMP9 activity"}, {"measurement": "MMP9 activity in the injured TA muscle (FIG. 11A)", "setting": "MMP9; SB-3CT IP daily, IVIS imaging 24 h after injury", "result": "significantly reduced MMP9 activity"}, {"measurement": "expansion of the PAX7+ satellite cell population (FIG. 11C)", "setting": "[1]; SB-3CT treated auf1 KO mice, 7 days post-injury", "result": "significant increased expansion"}, {"measurement": "increase in the PAX7+ satellite cell population (FIG. 11D)", "setting": "[1]; auf1 KO mice, SB-3CT treatment, 7 days post-injury, vs untreated KO", "result": "~4", "unit": "fold"}, {"measurement": "muscle wound repair", "setting": "[1]; injured auf1 KO mice, SB-3CT treatment", "result": "restoration of muscle wound repair"}, {"measurement": "muscle fiber morphology (FIG. 11C)", "setting": "[1]; injured, SB-3CT treated auf1 KO mice", "result": "near-normal muscle fibers were evident"}, {"measurement": "Laminin expression (FIG. 11C)", "setting": "[1]; injured, SB-3CT treated auf1 KO mice, 7 days post-injury", "result": "strongly increased"}]}]}
